Assay [1] has as its target T1, Endothelin receptor type B (Homo sapiens, UniProt P24530).
T1 sequence (P24530 whole entry): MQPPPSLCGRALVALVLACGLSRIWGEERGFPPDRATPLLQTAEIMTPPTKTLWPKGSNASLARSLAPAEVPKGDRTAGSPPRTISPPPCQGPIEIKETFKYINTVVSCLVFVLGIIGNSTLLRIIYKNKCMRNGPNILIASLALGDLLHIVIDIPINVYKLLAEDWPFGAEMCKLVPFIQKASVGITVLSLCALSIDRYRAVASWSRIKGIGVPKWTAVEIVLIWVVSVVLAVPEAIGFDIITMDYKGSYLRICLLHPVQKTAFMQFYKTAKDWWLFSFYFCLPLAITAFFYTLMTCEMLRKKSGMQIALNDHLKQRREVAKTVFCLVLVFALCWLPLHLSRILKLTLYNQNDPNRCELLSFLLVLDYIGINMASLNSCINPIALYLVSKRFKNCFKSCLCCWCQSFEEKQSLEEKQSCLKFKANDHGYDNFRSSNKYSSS

In assay [2] the target is Substance-P receptor (Homo sapiens, UniProt P25103).
Assay [3] concerns the target T2, Gastric inhibitory polypeptide receptor (Homo sapiens, UniProt P48546).
T2 sequence (P48546 whole entry): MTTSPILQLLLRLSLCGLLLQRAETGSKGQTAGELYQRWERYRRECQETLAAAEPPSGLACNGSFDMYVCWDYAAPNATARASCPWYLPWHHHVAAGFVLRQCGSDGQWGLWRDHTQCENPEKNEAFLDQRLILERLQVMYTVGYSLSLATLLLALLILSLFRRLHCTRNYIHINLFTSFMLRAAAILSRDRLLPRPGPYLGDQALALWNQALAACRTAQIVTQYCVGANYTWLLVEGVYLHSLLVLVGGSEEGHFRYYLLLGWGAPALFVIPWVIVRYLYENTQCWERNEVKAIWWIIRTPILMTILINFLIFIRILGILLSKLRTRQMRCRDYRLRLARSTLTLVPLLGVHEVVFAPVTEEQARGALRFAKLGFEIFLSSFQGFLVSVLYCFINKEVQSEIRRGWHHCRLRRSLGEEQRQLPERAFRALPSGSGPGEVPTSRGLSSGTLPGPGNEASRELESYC

The target of assay [4] is T3, Neuropeptide Y receptor type 2 (Homo sapiens, UniProt P49146).
T3 sequence (P49146 whole entry): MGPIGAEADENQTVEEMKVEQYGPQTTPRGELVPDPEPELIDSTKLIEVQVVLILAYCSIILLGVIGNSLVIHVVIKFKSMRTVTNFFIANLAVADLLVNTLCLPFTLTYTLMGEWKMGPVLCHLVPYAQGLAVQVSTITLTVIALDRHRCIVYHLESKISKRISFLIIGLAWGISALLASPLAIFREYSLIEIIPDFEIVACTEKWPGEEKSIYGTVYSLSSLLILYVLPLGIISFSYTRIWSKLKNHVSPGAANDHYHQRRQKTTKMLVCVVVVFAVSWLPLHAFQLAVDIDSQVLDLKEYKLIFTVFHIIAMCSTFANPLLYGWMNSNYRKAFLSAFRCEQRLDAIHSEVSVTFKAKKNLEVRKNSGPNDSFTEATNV

Assay [5] has as its target D(1A) dopamine receptor (Homo sapiens, UniProt P21728).
Assay [6] concerns the target T4, B1 bradykinin receptor (Homo sapiens, UniProt P46663).
T4 sequence (P46663 whole entry): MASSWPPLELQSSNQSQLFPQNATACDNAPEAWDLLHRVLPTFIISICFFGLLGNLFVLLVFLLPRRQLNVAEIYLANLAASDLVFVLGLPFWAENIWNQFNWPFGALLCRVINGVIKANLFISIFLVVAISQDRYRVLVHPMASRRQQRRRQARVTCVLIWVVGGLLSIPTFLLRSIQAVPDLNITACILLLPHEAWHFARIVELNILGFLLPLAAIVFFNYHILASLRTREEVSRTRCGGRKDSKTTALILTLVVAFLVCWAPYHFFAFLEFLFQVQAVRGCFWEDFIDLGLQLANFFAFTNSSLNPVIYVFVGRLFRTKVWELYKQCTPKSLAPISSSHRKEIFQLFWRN

The target of assay [7] is Glucagon receptor (Homo sapiens, UniProt P47871).
The target in assay [8] is 3',5'-cyclic-AMP phosphodiesterase 4A (Homo sapiens, UniProt P27815). It is filed as functional.
In assay [9] the target is T5, Muscarinic acetylcholine receptor M2 (Homo sapiens, UniProt P08172).
T5 sequence (P08172 whole entry): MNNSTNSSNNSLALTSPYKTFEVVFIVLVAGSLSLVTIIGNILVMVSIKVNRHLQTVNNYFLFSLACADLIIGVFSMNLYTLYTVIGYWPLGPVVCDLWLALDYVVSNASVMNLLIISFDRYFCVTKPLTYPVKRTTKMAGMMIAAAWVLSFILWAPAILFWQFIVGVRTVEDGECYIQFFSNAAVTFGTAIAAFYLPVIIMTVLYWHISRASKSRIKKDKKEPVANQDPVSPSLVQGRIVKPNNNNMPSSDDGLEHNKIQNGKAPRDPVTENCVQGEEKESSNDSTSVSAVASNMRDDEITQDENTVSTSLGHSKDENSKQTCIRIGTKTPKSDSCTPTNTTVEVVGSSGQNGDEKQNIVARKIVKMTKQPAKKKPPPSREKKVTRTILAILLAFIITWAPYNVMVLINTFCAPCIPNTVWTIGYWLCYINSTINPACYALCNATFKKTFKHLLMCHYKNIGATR
Also: assay procedure not described here.

Chain of Substance-P receptor (P25103 whole entry): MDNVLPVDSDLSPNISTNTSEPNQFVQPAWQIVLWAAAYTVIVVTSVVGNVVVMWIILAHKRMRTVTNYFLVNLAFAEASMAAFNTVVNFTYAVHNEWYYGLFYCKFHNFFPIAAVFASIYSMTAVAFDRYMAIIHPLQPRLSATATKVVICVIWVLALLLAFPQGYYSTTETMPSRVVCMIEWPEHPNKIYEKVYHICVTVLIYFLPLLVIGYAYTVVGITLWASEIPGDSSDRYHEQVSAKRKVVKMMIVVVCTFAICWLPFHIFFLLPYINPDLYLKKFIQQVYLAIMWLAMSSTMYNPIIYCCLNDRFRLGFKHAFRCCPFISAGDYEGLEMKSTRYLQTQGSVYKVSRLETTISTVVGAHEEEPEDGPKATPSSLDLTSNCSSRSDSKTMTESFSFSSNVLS
Chain of D(1A) dopamine receptor (P21728 whole entry): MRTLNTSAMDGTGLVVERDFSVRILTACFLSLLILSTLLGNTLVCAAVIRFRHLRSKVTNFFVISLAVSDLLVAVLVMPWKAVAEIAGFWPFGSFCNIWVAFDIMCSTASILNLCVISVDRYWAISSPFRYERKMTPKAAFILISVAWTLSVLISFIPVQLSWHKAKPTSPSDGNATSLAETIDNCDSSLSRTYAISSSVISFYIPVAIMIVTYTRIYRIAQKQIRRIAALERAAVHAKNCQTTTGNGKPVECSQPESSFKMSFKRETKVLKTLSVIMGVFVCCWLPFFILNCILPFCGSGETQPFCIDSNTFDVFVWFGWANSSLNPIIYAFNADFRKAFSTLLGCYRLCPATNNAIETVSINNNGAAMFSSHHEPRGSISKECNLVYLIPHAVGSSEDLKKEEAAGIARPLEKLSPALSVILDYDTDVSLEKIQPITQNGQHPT
Chain of Glucagon receptor (P47871 whole entry): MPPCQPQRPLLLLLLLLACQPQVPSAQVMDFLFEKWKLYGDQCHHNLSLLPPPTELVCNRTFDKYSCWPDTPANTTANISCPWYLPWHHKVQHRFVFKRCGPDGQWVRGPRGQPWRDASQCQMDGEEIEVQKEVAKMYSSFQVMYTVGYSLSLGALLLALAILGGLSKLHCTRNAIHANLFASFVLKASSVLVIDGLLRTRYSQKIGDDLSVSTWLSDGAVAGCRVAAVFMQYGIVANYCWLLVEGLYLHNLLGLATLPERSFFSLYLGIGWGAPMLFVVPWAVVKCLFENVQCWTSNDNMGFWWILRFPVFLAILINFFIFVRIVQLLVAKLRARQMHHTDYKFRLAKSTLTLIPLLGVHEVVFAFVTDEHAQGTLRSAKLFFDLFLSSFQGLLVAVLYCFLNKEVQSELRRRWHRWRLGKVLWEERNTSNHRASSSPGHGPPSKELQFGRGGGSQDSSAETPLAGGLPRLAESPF
Chain of 3',5'-cyclic-AMP phosphodiesterase 4A (P27815 whole entry): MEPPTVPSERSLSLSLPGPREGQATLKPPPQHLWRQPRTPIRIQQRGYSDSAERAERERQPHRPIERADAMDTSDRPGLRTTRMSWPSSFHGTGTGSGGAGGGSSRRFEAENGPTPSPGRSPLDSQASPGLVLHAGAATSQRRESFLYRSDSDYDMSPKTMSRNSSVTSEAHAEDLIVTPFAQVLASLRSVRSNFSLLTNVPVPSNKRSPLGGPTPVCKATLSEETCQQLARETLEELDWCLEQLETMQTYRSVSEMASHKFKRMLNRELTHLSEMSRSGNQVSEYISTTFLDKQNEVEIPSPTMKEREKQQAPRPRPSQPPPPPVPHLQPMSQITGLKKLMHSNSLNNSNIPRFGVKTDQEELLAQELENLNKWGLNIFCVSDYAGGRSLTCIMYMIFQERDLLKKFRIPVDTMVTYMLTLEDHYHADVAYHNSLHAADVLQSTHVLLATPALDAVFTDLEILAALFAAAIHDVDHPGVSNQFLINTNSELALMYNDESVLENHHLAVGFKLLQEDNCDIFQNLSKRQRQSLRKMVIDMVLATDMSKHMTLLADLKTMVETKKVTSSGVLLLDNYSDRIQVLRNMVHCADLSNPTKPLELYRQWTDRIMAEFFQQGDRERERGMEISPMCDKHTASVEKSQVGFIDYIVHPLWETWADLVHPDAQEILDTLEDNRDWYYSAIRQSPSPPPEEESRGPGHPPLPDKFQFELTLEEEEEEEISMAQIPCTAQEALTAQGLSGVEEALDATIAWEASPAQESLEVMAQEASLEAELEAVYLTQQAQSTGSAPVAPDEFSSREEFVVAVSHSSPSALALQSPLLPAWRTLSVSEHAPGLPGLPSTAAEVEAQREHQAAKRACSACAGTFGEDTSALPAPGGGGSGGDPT

As usually defined, the AC50 is the concentration giving half of the maximal activity seen. In the case of `Cc1c(OCC(F)(F)F)ccnc1C[S+]([O-])c1nc2ccccc2[nH]1` (stereo not drawn) [LANSOPRAZOLE], the half-maximal activity concentration (AC50) in assay [1] is greater than 30 µM; in [2], 17.2 µM; in assay [3] it was greater than 30 µM; in assay [4], greater than 30 µM; in assay [5] it was greater than 10 µM; in assay [6], greater than 30 µM. In addition, the AC50 in assay [7] was greater than 30 µM.

Turning to `CO[C@]12C[C@@H](COC(=O)c3cncc(Br)c3)CN(C)[C@@H]1Cc1cn(C)c3cccc2c13` [NICERGOLINE], the AC50 was greater than 30 µM in assay [8] and 7.93 µM in [9].

Take `COc1cccc(C2(O)CCCCC2CN(C)C)c1` (stereo not drawn) [TRAMADOL]: the AC50 is greater than 30 µM in assay [1]; greater than 10 µM in assay [2]; greater than 30 µM in assay [3]; greater than 30 µM in assay [4]; greater than 10 µM in assay [5]; greater than 30 µM in assay [6]. In [7], this compound had an AC50 greater than 30 µM.

Consider THIMEROSAL, for which the AC50 in assay [8] and in assay [9] was greater than 30 µM throughout.

For the origin of these results see ChEMBL document CHEMBL5291721, “A preclinical secondary pharmacology resource illuminates target-adverse drug reaction associations of marketed drugs” (Nat Commun, 2023).
